Source: US9783510B2, “Small molecule mediated transcriptional induction of E-cadherin” (Vanderbilt University, priority 2014, dated 2017)

Test system: HEp3 cells
Experiment: E-cadherin mRNA, protein and histone marks in HEp3 cells
Assay type: cell-based, Human
Conditions: by 6 hours after treatment, compared with Compound 124 treatment
Experimental: To determine if Compound 13 restores E-cadherin in HEp3 cells, the effect of Compound 13 treatment on E-cadherin mRNA expression was tested. Compound 13 induced an 8-fold increase in E-cadherin mRNA by 6 hours after treatment in the […] compared with Compound 124 treatment (FIG. 15C). Not only E-cadherin specific mRNA, but also E-cadherin protein, was induced by Compound 13 treatment (FIG. 15D).
Avian embryos were treated with Compound 124 (266Y) or Compound 13 (259Y) 24 hours after intravenous injection of GFP-expressing HEp3 cells. The formation of metastatic colonies was monitored visually by a fluorescent stereoscope at 50× magnification. Representative images are shown, scale bar=500 μm (15A). Colony diameter was quantified at 6 days post injection. The data represent a total of 30 embryos from two independent experiments: 12 treated with Compound 124 (266Y) and 18 treated with Compound 13 (259Y). […] Each data point on the scatterplot represents the geometric mean diameter of 6-10 colonies analyzed per embryo (15B). Relative E-cadherin mRNA expression in HEp3 cells following 6 hours treatment with either Compound 124 (266Y) or Compound 13 (259Y) is shown (15C). Western blot showing E-cadherin protein re-expression in HEp3 cells following treatment with DMSO, Compound 124 (266Y), or Compound 13 (259Y) for 24 hours is shown (15D). […]

O=C(NCCCNC(=O)c1cccnc1O)c1cc(-c2ccccc2)on1 [Compound 13, N-(3-(2-hydroxynicotinamido)propyl)-5-phenylisoxazole-3-carboxamide] was tested, and the “increase in E-cadherin mRNA” value was 8 fold.
